Laboratory results published in PubChem BioAssay (NCI).
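These data come from cells grown in 96-well plates and exposed to compound for 48 hours at five concentrations. TGI: total growth inhibition.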

Columns and labels:
Assay in all cases: inhibition of tumour cell growth, NCI panel, 48 h
[1] = test system: SK-MEL-28 melanoma
[2] = test system: A549 NSCLC
[3] = test system: HT29 colon
[4] = test system: M14 melanoma
[5] = test system: BT-549 breast
[6] = test system: U251 CNS
[7] = test system: SW-620 colon
[8] = test system: OVCAR-8 ovarian
[9] = test system: MDA-N
[10] = test system: MOLT-4 leukemia
[11] = test system: MDA-MB-231 breast
[12] = test system: NCI-H226 lung
[13] = test system: HOP-92 NSCLC

| SMILES | TGI [1] [µM] | TGI [2] [µM] | TGI [3] [µM] | TGI [4] [µM] | TGI [5] [µM] | TGI [6] [µM] | TGI [7] [µM] | TGI [8] [µM] | TGI [9] [µM] | TGI [10] [µM] | TGI [11] [µM] | TGI [12] [µM] | TGI [13] [µM] |
| --- | --- | --- | --- | --- | --- | --- | --- | --- | --- | --- | --- | --- | --- |
| O=C(O)c1ccc(NC(NC(=O)C(C(F)(F)F)C(F)(F)F)(C(F)(F)F)C(F)(F)F)cc1 | > 100 | > 100 | > 100 | > 100 | > 100 | > 100 | > 100 | > 100 | > 100 | > 100 | – | – | – |
| CC(C)(C)Nc1noc(=O)n1C(C)(C)C | > 100 | > 100 | > 100 | > 100 | – | > 100 | > 100 | > 100 | > 100 | > 100 | > 100 | > 100 | > 100 |
| CN(C)CCN=C1Nc2ccccc2C(=S)N2CSCC12 (stereo not given) | > 100 | > 100 | > 100 | > 100 | > 100 | > 100 | > 100 | > 100 | > 100 | > 100 | > 100 | > 100 | – |
| CCOC(=O)[C@@]12C3C=CC(CC3)[C@]1(C(=O)c1ccccc1)C(=O)C(=O)N2c1ccccc1 (stereo not given in full) | > 100 | > 100 | > 100 | > 100 | – | > 100 | > 100 | > 100 | > 100 | > 100 | > 100 | – | > 100 |
| O=C(CSc1nc2[nH]ncc2c(=O)[nH]1)c1ccc(Cl)cc1 | > 100 | > 100 | > 100 | > 100 | > 100 | > 100 | > 100 | > 100 | > 100 | > 100 | > 100 | > 100 | – |
| COc1ccc(OCc2ccc3nc(-c4ccccc4)c(Cl)nc3c2)cc1 | > 100 | > 100 | > 100 | > 100 | – | 31.6 | > 100 | > 100 | > 100 | > 100 | 37.9 | – | 46.7 |
| O=P1(Oc2ccccc2)N(CCCl)CCN1c1ccccc1 (stereo not given) | > 100 | > 100 | > 100 | > 100 | – | > 100 | > 100 | > 100 | > 100 | > 100 | > 100 | > 100 | > 100 |
| COC(CC1(/C=C/O[Si](C(C)C)(C(C)C)C(C)C)C(=O)N(C)c2ccccc21)OC (stereo not given) | > 100 | > 100 | – | > 100 | – | > 100 | > 100 | > 100 | > 100 | > 100 | > 100 | 90 | > 100 |
| CC(=O)OC1CCCn2c1nc1c2C(=O)C(C)=C(N2CC2)C1=O (stereo not given) | 1.14 | 2.77 | 0.645 | 0.337 | – | 0.533 | 0.927 | 1.37 | – | > 100 | – | 0.944 | 54.6 |
| CC(=O)CSc1c(-c2ccccc2)c(=O)n(-c2ccccc2)c(=S)n1-c1ccccc1 | > 100 | > 100 | > 100 | > 100 | > 100 | > 100 | > 100 | > 100 | > 100 | > 100 | – | > 100 | > 100 |
| COCCCNC(=O)C1=C(C)NC(C)=C(C(=O)NCCCOC)C1 | > 100 | > 100 | > 100 | > 100 | – | > 100 | > 100 | > 100 | > 100 | > 100 | > 100 | > 100 | > 100 |
| CC(C)(C)OC(=O)NCCc1cccc2c1oc1c(CCC(=O)O)cccc12 | > 100 | > 100 | > 100 | > 100 | – | > 100 | > 100 | > 100 | – | > 100 | – | > 100 | > 100 |
| O=C(O)CCc1ccc2c(c1)C(=O)CC2 | > 100 | > 100 | > 100 | > 100 | > 100 | > 100 | > 100 | > 100 | > 100 | > 100 | > 100 | > 100 | – |
| COc1cc2cccc(N)c2cc1OC | > 100 | > 100 | > 100 | > 100 | > 92.6 | > 100 | > 100 | > 100 | > 100 | > 100 | > 100 | > 100 | – |
| c1ccc(-n2nc3ccc4nonc4c3n2)cc1 | > 100 | > 100 | > 100 | > 100 | – | > 100 | > 100 | > 100 | > 100 | > 100 | > 100 | – | > 100 |
| COc1ccc2cc(C(=O)O)ccc2c1OC | – | > 100 | > 100 | > 100 | > 100 | > 100 | > 100 | > 100 | > 100 | > 100 | > 100 | > 100 | – |
| O=C(N=Nc1cccc(Cl)c1)NNc1cccc(Cl)c1 | 41 | 94.6 | 43.5 | 32.2 | – | 40 | 35.5 | 50.1 | 31.2 | 42.7 | 74.6 | > 100 | – |
| CC(SC(=S)N1CCOCC1)C(=O)Nc1nnc(-c2ccccc2)o1 (stereo not given) | > 100 | > 100 | > 100 | > 100 | > 100 | > 100 | > 100 | > 100 | > 100 | > 100 | > 100 | > 100 | – |
| CCOC(=O)C(C)NC(=O)C(C)NC(=O)C(C)NC(=O)C(C)NC(=O)C(C)NC(=O)OCc1ccccc1 (stereo not given) | > 100 | > 100 | > 100 | > 100 | > 100 | > 100 | > 100 | > 100 | > 100 | > 100 | > 100 | > 100 | – |

| SMILES | TGI [1] [µM] | TGI [2] [µM] | TGI [3] [µM] | TGI [4] [µM] | TGI [5] [µM] | TGI [6] [µM] | TGI [7] [µM] | TGI [8] [µM] | TGI [9] [µM] | TGI [10] [µM] | TGI [11] [µM] | TGI [12] [µM] | TGI [13] [µM] |
| --- | --- | --- | --- | --- | --- | --- | --- | --- | --- | --- | --- | --- | --- |
| CCOC(=O)[C@@]12C[C@](/C=C/OC)(O[Si](C)(C)C)[C@@]13c1cc(OC)c(OC)cc1CCN3C(=O)C2O (stereo not given in full) | > 100 | > 100 | > 100 | > 100 | – | > 100 | > 100 | > 100 | > 100 | > 100 | > 100 | > 100 | > 100 |
| CC(=O)NC1=C(NCCN(C)C)C(=O)c2ccccc2C1=O | > 50 | 48.8 | 38.6 | > 50 | – | 29 | > 50 | 31.6 | – | > 50 | – | > 50 | – |
| C=C[C@@H]1C[C@]2(C(=O)OC)Cc3nc4ccccc4nc3CC(C(=O)OC)=C2O1 | > 100 | > 100 | > 100 | > 100 | > 100 | > 100 | > 100 | > 100 | > 100 | > 100 | > 100 | – | – |
| CCc1c(Cc2[nH]c(Cc3[nH]c(C=O)c(C)c3CC)c(CC)c2CC)[nH]c(C=O)c1C | > 100 | > 100 | > 100 | > 100 | – | > 100 | > 100 | > 100 | – | > 100 | – | > 100 | – |
| C=C(C)[C@@]1(OC(=O)c2cc([N+](=O)[O-])cc([N+](=O)[O-])c2)C[C@@H]2CCCC[C@@H]21 | > 100 | > 100 | > 100 | > 100 | > 100 | > 100 | > 100 | > 100 | > 100 | > 100 | > 100 | > 100 | – |
| Cc1ncc2c(=O)c3c(oc2n1)c1ccccc1n3Cc1ccccc1 | > 100 | > 100 | > 100 | – | > 100 | > 100 | > 100 | > 100 | > 100 | > 100 | > 100 | > 100 | – |
| CC1=CC[C@@]2(CO)[C@@H]([C@@H]1C)[C@H]1CC[C@@H]3[C@@]4(C)CC[C@H](O)C(C)(C)[C@@H]4CC[C@@]3(C)[C@]1(C)C[C@@H]2O | > 100 | > 100 | > 100 | > 100 | 59.2 | 46.7 | > 100 | 55 | > 100 | > 100 | – | 81.4 | 44 |
| O=C(O)c1cc(/C=C/c2cc(O)ccc2O)ccc1O | – | > 10 | > 10 | > 10 | > 10 | > 10 | > 10 | > 10 | > 10 | > 10 | > 10 | > 10 | – |
| c1ccc([P+](Cc2ccccc2C[P+](c2ccccc2)(c2ccccc2)c2ccccc2)(c2ccccc2)c2ccccc2)cc1 | > 100 | > 100 | > 100 | > 100 | > 100 | > 100 | > 100 | > 100 | > 100 | – | > 100 | > 100 | – |
| C[n+]1c(-c2ccc(/C=N/NC(=O)C(=O)N/N=C/c3ccc(-c4cn5ccsc5[n+]4C)cc3)cc2)cn2ccsc21 | > 100 | > 100 | > 100 | > 100 | – | > 100 | > 100 | > 100 | > 100 | > 100 | > 100 | – | – |
| CO[C@@H]1C=C[C@@]23c4cc5c(cc4C(=O)O[C@H]2CN(C)[C@H]3C1)OCO5 | > 100 | > 100 | > 100 | > 100 | – | > 100 | > 100 | > 100 | – | > 100 | – | – | > 100 |
| c1cc2c(c(NC3=NCCO3)c1)CCC2 | > 100 | > 100 | > 100 | > 100 | – | > 100 | > 100 | > 100 | > 100 | > 100 | > 100 | > 100 | > 100 |
| COC(=O)[C@@H]1CN(C(C)=O)C(=O)N1C(=O)OCc1ccccc1 | > 100 | > 100 | > 100 | > 100 | – | > 100 | > 100 | > 100 | > 100 | > 100 | > 100 | > 100 | > 100 |
| Oc1ccc(N=C2CCC(=C(c3ccccc3)c3ccc(Nc4ccc(O)cc4)cc3)CC2)cc1 | > 100 | > 100 | > 100 | > 100 | – | > 100 | > 100 | > 100 | – | > 100 | > 100 | > 100 | > 100 |
| Cc1cc(S(=O)(=O)Nc2cc(N)[nH]n2)c(SCc2nc(N)nc(N(C)C)n2)cc1Cl | > 10 | > 10 | > 10 | > 10 | > 10 | > 10 | > 10 | > 10 | > 10 | > 10 | – | > 10 | > 10 |
| Nc1cc(N2CCCC2)nc(=O)n1-c1ccccc1 | > 100 | > 100 | > 100 | > 100 | > 100 | > 100 | > 100 | > 100 | – | > 100 | > 100 | > 100 | > 100 |
| N#C/C(C(=O)Nc1ccc(Cl)cc1)=C(/N)N1CCCCC1 | > 100 | > 100 | – | > 100 | > 100 | > 100 | > 100 | > 100 | > 100 | > 100 | – | > 100 | > 100 |
| CO/N=C(\C(=O)N(C)n1cnnc1)c1csc(NC(c2ccccc2)(c2ccccc2)c2ccccc2)n1 | > 10 | > 10 | > 10 | > 10 | > 10 | > 10 | > 10 | > 10 | > 10 | > 10 | – | > 10 | > 10 |
